Where a name gives a salt, the structure may show the parent alone. Read-outs that look alike come from different tables or passages of the source.
Assays:
H. influenzae ATCC 49766 = experiment: MIC, broth microdilution; assay type: cell-based; details: Haemophilus influenzae, ATCC49766; H. influenzae ATCC 49766, ciprofloxacin-susceptible
Protocol: (§1) MICs were determined by the broth microdilution method (the agar dilution method was used only for N. gonorrhoeae) according to CLSI guidelines.

E. faecalis ATCC 29212 = experiment: MIC, broth microdilution; assay type: cell-based; details: Enterococcus faecalis, ATCC29212; E. faecalis ATCC 29212, ciprofloxacin-susceptible
Protocol: as §1

[1] = system: K. pneumoniae ATCC 700603; experiment: MIC, broth microdilution; assay type: cell-based; details: Klebsiella pneumoniae, ATCC700603; K. pneumoniae ATCC 700603, ciprofloxacin-susceptible
Protocol: as §1

E. coli ATCC 25922 = experiment: MIC, broth microdilution; assay type: cell-based; details: Escherichia coli, ATCC25922; E. coli ATCC 25922, ciprofloxacin-susceptible
Protocol: as §1

S. aureus BAA-1720 = experiment: MIC, broth microdilution; assay type: cell-based; details: Staphylococcus aureus, BAA1720; S. aureus BAA-1720, ciprofloxacin-resistant
Protocol: as §1

S. pneumoniae ATCC 49619 = experiment: MIC, broth microdilution; assay type: cell-based; details: Streptococcus pneumoniae, ATCC49619; S. pneumoniae ATCC 49619, ciprofloxacin-susceptible
Protocol: as §1

P. aeruginosa ATCC 27853 = experiment: MIC, broth microdilution; assay type: cell-based; details: Pseudomonas aeruginosa, ATCC27853; P. aeruginosa ATCC 27853, ciprofloxacin-susceptible
Protocol: as §1

[2] = system: N. gonorrhoeae clinical isolates (n = 38); experiment: microbe, parasite or virus in culture; assay type: cell-based, Neisseria gonorrhoeae; details: for MIC50 / MIC90: Neisseria gonorrhoeae
Protocol: (§2) The bacterial reference strains used in this study were purchased from ATCC (American Type Culture Collection) via LGC Standards (Middlesex, UK). […] Clinical MDR isolates were provided by Aptuit, the IHMA Europa Sàrl repository (Epalinges, Switzerland) and the Statens Serum Institute (Copenhagen, Denmark).
as §1
(§3) The results obtained using clinical isolates are reported as MIC50 and MIC90 values.

S. aureus DNA gyrase = target: T1, S. aureus DNA gyrase (Staphylococcus aureus, UniProt P20831); experiment: S. aureus DNA gyrase supercoiling gel assay; assay type: biochemical
T1 construct: purchased Inspiralis (Norwich, UK)
T1 sequence (P20831 whole entry): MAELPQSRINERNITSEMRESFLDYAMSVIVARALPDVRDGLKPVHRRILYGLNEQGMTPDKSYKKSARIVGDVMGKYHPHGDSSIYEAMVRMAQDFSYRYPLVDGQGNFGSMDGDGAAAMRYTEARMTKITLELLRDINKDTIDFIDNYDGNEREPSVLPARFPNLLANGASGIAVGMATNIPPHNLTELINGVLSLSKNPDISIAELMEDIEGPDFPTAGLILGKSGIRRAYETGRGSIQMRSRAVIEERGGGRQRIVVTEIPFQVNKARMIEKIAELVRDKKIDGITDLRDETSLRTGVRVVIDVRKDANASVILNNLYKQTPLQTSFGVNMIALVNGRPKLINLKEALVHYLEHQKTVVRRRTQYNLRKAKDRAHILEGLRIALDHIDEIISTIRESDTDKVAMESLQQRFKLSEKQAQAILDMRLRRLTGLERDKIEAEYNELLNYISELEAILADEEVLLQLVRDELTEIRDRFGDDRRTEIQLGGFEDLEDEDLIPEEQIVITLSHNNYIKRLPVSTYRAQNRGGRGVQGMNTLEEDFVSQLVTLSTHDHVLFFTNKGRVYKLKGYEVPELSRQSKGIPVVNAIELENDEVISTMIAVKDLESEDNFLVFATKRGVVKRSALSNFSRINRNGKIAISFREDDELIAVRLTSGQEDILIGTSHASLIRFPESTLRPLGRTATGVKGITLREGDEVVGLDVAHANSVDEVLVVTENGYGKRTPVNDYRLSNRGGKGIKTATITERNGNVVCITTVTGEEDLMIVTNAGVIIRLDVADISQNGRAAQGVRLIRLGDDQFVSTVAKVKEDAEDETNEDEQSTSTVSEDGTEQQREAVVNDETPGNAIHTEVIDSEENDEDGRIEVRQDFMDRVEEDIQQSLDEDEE
T1 sequence (P0A0K8 whole entry partner): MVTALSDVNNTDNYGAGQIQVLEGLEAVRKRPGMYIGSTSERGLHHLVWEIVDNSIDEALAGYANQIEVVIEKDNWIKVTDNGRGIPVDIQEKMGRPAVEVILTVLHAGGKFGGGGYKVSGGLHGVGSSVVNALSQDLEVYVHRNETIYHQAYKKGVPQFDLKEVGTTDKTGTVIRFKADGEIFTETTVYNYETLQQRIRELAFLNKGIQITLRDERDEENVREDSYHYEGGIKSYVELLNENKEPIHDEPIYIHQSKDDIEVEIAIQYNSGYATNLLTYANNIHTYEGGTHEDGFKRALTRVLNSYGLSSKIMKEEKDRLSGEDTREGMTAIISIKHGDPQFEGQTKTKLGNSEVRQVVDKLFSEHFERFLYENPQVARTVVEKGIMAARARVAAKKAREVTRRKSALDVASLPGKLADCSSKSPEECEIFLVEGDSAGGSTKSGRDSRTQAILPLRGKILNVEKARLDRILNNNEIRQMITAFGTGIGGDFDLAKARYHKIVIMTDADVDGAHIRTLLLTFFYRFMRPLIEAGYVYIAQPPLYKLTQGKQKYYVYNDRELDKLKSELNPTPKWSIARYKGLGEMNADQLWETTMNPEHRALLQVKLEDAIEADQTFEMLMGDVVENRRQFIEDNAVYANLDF
Protocol: (§4) S. aureus and E. coli DNA gyrase supercoiling and topo IV decatenation assay kits, as well as human topoisomerase II decatenation assay kits, were provided by Inspiralis (Norwich, UK). Assays were performed according to the manufacturer’s instructions. The compounds were serially diluted (1:3 dilutions starting from a 300 μM final concentration) and assayed in a reaction mixture to obtain concentration-response curves in two different replicate experiments. The final concentration of DMSO in the assays was 1% (v/v). The reactions were terminated by the addition of 30 μl chloroform/isoamyl alcohol (26:1) and 30 μl Stop Dye (40% sucrose, 100 mM Tris HCl pH 7.5, 1 mM EDTA, 0.5 μg/ml bromophenol blue), after which the samples were loaded onto a 1.0% TAE ([…]) gel that was then run at 80 V for 2 hours. DNA bands were visualized by ethidium bromide staining the gel for 10 minutes, which was then destained for 10 minutes in water and analysed using gel documentation equipment (Syngene, Cambridge, UK). The DNA in each band was quantitated using Syngene Gene Tools software. Raw gel data (fluorescent band volumes) were converted by the software to percentages of the control (the fully supercoiled or decatenated DNA band). […] The global curve fit non-linear regression tool was used to calculate the IC50 values. The results are expressed as the average values obtained after calculating the IC50 from each replicate run.

E. coli Topoisomerase IV = target: T2, E. coli Topoisomerase IV (Escherichia coli, UniProt P0AFI2); experiment: E. coli topoisomerase IV decatenation gel assay; assay type: biochemical
T2 construct: purchased Inspiralis (Norwich, UK)
Protocol: as §4

[3] = target: T3, S. aureus Topoisomerase IV (Staphylococcus aureus, UniProt P0C1U9); experiment: S. aureus topoisomerase IV decatenation gel assay; assay type: biochemical
T3 construct: purchased Inspiralis (Norwich, UK)
Protocol: as §4

N. gonorrhoeae WHO L = experiment: MIC, agar dilution; assay type: cell-based; details: Neisseria gonorrhoeae, ciprofloxacin-resistant
Protocol: as §1

N. gonorrhoeae WHO N = experiment: MIC, agar dilution; assay type: cell-based; details: Neisseria gonorrhoeae, ciprofloxacin-resistant
Protocol: as §1

[4] = system: N. gonorrhoeae ATCC 19424; experiment: MIC, agar dilution; assay type: cell-based; details: Neisseria gonorrhoeae, ATCC19424; N. gonorrhoeae ATCC 19424, ciprofloxacin-susceptible
Protocol: as §1

[5] = system: N. gonorrhoeae ATCC 49226; experiment: MIC, agar dilution; assay type: cell-based; details: Neisseria gonorrhoeae, ATCC49226; N. gonorrhoeae ATCC 49226, ciprofloxacin-susceptible
Protocol: as §1

N. gonorrhoeae WHO K = experiment: MIC, agar dilution; assay type: cell-based; details: Neisseria gonorrhoeae, ciprofloxacin-resistant
Protocol: as §1

Human Topoisomerase II = target: T4, Human Topoisomerase II (Homo sapiens, UniProt P11388); experiment: Human topoisomerase II decatenation gel assay; assay type: biochemical
T4 construct: purchased Inspiralis (Norwich, UK)
T4 sequence (P11388 whole entry): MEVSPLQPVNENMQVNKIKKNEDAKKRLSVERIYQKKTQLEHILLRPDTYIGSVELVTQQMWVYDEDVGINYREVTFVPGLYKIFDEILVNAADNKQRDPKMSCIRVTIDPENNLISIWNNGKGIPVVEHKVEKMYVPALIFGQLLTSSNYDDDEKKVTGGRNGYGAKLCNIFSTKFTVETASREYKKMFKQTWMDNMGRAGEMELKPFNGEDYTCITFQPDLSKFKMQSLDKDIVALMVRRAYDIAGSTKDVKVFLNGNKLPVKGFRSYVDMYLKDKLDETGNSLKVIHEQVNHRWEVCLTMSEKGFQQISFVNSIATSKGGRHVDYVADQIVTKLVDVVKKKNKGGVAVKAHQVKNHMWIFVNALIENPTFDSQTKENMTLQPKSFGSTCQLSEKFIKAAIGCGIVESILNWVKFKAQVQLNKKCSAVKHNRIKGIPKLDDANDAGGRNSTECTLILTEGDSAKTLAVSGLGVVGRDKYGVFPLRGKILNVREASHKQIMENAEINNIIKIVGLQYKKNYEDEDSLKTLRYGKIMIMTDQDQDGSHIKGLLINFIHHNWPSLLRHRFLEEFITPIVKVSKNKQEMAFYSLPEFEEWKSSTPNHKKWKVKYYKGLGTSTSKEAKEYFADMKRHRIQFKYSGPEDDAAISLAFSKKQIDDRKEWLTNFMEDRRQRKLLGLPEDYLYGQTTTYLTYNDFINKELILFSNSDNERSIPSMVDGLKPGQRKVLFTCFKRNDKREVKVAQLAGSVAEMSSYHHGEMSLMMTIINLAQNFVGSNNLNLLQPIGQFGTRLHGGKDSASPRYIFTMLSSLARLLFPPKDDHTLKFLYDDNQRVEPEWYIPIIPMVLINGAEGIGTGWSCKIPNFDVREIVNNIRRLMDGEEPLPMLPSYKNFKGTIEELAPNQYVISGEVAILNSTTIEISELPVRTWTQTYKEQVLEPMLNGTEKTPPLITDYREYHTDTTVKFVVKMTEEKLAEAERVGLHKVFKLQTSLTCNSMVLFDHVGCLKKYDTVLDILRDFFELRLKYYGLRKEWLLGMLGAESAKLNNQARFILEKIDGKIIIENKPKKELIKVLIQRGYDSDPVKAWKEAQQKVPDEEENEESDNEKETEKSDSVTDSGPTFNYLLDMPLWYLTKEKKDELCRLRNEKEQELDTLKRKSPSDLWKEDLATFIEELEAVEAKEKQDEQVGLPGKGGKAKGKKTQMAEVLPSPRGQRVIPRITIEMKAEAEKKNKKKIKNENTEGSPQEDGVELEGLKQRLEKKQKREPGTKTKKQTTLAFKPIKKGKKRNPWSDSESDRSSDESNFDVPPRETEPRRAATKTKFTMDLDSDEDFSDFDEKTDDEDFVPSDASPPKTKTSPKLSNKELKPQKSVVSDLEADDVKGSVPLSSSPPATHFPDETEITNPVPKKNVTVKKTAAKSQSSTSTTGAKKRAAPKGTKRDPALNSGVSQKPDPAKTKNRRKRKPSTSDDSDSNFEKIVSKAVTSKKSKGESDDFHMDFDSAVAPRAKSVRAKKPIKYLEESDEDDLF
Protocol: as §4

[6] = system: E. faecalis clinical isolates (n = 12) vanA (6)/vanB (6); experiment: MIC, multidrug-resistant clinical isolates; assay type: cell-based; details: Enterococcus faecalis; for MIC: read-out: MIC range
Protocol: as §2, §1, §3

[7] = system: E. faecium clinical isolates (n = 12) vanA (6)/vanB (6); experiment: MIC, multidrug-resistant clinical isolates; assay type: cell-based; details: Enterococcus faecium; for MIC: read-out: MIC range
Protocol: as §2, §1, §3

E. coli TolC- mutant = experiment: microbe, parasite or virus in culture; assay type: cell-based; details: Escherichia coli
Protocol: as §2, §1

S. aureus ATCC 29213 = experiment: MIC, broth microdilution; assay type: cell-based, Staphylococcus aureus; details: for MIC: Staphylococcus aureus
Protocol: as §1

E. coli DNA gyrase = target: T5, E. coli DNA gyrase (Escherichia coli, UniProt P0AES4); experiment: E. coli DNA gyrase supercoiling gel assay; assay type: biochemical
T5 construct: purchased Inspiralis (Norwich, UK)
T5 sequence (P0AES4 whole entry): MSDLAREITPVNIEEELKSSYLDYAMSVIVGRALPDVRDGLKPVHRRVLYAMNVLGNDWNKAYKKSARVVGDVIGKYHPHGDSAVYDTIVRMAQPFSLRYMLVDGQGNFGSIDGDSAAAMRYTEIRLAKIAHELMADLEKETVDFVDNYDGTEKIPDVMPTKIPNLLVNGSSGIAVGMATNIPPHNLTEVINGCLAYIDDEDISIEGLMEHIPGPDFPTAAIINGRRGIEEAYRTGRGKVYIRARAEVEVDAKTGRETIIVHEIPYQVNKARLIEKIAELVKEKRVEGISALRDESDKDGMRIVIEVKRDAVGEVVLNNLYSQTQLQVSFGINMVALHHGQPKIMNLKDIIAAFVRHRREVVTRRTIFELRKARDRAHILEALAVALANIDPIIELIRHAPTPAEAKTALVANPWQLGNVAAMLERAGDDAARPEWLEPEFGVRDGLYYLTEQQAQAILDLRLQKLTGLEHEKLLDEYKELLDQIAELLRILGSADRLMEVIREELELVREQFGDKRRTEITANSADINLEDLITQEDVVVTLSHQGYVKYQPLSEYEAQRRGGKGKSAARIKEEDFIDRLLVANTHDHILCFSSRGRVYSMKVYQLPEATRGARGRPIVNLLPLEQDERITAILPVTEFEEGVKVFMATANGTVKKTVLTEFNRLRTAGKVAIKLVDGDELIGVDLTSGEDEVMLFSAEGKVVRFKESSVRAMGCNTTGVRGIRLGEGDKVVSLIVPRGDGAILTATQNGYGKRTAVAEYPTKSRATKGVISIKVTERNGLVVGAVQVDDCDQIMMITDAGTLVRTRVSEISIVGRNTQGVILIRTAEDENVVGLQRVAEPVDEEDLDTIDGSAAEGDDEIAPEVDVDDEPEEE
Protocol: as §4

[8] = average of two replicate experiments, read-out: IC50 S. aureus Gyrase Supercoiling (average)
[9] = replicate Assay 1, read-out: IC50 S.aureus gyrase Supercoiling, Assay 1
[10] = replicate Assay 2, read-out: IC50 S.aureus gyrase Supercoiling, Assay 2
[11] = replicate Assay 1, read-out: IC50 S. aureus Topoisomerase IV decatenation, Assay 1
[12] = replicate Assay 2, read-out: IC50 S. aureus Topoisomerase IV decatenation, Assay 2
[13] = average of two replicate experiments, read-out: IC50 Human Topoisomerase II decatenation (average)
[14] = replicate Assay 1, read-out: IC50 Human Topoisomerase II (TopoII) decatenation, Assay 1
[15] = replicate Assay 2, read-out: IC50 Human Topoisomerase II (TopoII) decatenation, Assay 2
[16] = ATCC29213, S. aureus ATCC 29213, ciprofloxacin-susceptible

O=c1oc2ccc(F)cc2c2[nH]c(CN[C@H]3CC[C@H](n4c(=O)cnc5ncc(F)cc54)CC3)cc12 [Compound 4, 8-fluoro-2-({[trans-4-(7-fluoro-2-oxopyrido[2,3-b]pyrazin-1(2H)-yl)cyclohexyl]amino}methyl)[1]benzopyrano[4,3-b]pyrrol-4(1H)-one (formate salt)]
MIC (H. influenzae ATCC 49766): 0.12 µg/mL
MIC (E. faecalis ATCC 29212): 0.5 µg/mL
MIC [1]: 4 µg/mL
MIC (E. coli ATCC 25922): 0.5 µg/mL
MIC (S. aureus BAA-1720): 0.5 µg/mL
MIC (S. pneumoniae ATCC 49619): 0.25 µg/mL
MIC (P. aeruginosa ATCC 27853): 2 µg/mL
MIC range [2]: 0.004 to 0.12 µg/mL
MIC50 [2]: 0.06 µg/mL
MIC90 [2]: 0.12 µg/mL
IC50 (S. aureus DNA gyrase; [8]): 1 µM
IC50 (S. aureus DNA gyrase; [9]): 0.8 µM
IC50 (S. aureus DNA gyrase; [10]): 1.2 µM
IC50 (E. coli Topoisomerase IV; average of two replicate experiments, read-out: IC50 E. coli Topoisomerase IV decatenation (average)): 0.3 µM
IC50 (E. coli Topoisomerase IV; replicate Assay 1, read-out: IC50 E. coli Topoisomerase IV decatenation, Assay 1): 0.5 µM
IC50 (E. coli Topoisomerase IV; replicate Assay 2, read-out: IC50 E. coli Topoisomerase IV decatenation, Assay 2): 0.2 µM
IC50 [3]: 0.22 µM
IC50 [3, 11]: 0.26 µM
IC50 [3, 12]: 0.17 µM
MIC (N. gonorrhoeae WHO L): 0.12 µg/mL
MIC (N. gonorrhoeae WHO N): 0.06 µg/mL
MIC [4]: ≤ 0.06 µg/mL
MIC [5]: 0.06 µg/mL
MIC (N. gonorrhoeae WHO K): 0.12 µg/mL
IC50 (Human Topoisomerase II; [13]): > 300 µM
IC50 (Human Topoisomerase II; [14]): > 300 µM
IC50 (Human Topoisomerase II; [15]): > 300 µM
MIC50 [6]: 0.25 µg/mL
MIC90 [6]: 0.5 µg/mL
MIC [6]: 0.12 to 1 µg/mL
MIC50 [7]: 1 µg/mL
MIC90 [7]: 1 µg/mL
MIC [7]: 0.25 to 8 µg/mL
MIC (E. coli TolC- mutant): ≤ 0.016 µg/mL
MIC (S. aureus ATCC 29213; [16]): 0.25 µg/mL
IC50 (E. coli DNA gyrase; average of two replicate experiments, read-out: IC50 E. coli Gyrase Supercoiling (average)): 0.13 µM
IC50 (E. coli DNA gyrase; replicate Assay 1, read-out: IC50 E. coli gyrase Supercoiling, Assay 1): 0.15 µM
IC50 (E. coli DNA gyrase; replicate Assay 2, read-out: IC50 E. coli gyrase Supercoiling, Assay 2): 0.12 µM

Cl.N#Cc1ccc2ccc(=O)n([C@H]3CC[C@H](NCc4cc5c(=O)oc6ccc(F)cc6c5[nH]4)CC3)c2c1 [Compound 2, 1-(trans-4-{[(8-fluoro-4-oxo-1,4-dihydro[1]benzopyrano[4,3-b]pyrrol-2-yl)methyl]amino}cyclohexyl)-2-oxo-1,2-dihydroquinoline-7-carbonitrile hydrochloride]
MIC (H. influenzae ATCC 49766): 0.5 µg/mL
MIC (E. faecalis ATCC 29212): 0.25 µg/mL
MIC [1]: > 8 µg/mL
MIC (E. coli ATCC 25922): 0.5 µg/mL
MIC (S. aureus BAA-1720): 0.016 µg/mL
MIC (S. pneumoniae ATCC 49619): ≤ 0.06 µg/mL
MIC (P. aeruginosa ATCC 27853): 2 µg/mL
MIC range [2]: 0.004 to 0.12 µg/mL
MIC50 [2]: 0.06 µg/mL
MIC90 [2]: 0.12 µg/mL
IC50 (S. aureus DNA gyrase; [8]): < 0.1 µM
IC50 (S. aureus DNA gyrase; [9]): < 0.1 µM
IC50 (S. aureus DNA gyrase; [10]): < 0.1 µM
IC50 (E. coli Topoisomerase IV; IC50 E. coli Topoisomerase IV decatenation (average), average of two replicate experiments): 0.13 µM
IC50 (E. coli Topoisomerase IV; IC50 E. coli Topoisomerase IV decatenation, Assay 1, replicate Assay 1): 0.1 µM
IC50 (E. coli Topoisomerase IV; IC50 E. coli Topoisomerase IV decatenation, Assay 2, replicate Assay 2): 0.16 µM
IC50 ([3]; average of two replicate experiments, read-out: IC50 S. aureus Topoisomerase IV decatenation (average)): < 0.1 µM
IC50 [3, 11]: < 0.1 µM
IC50 [3, 12]: < 0.1 µM
MIC (N. gonorrhoeae WHO L): 0.06 µg/mL
MIC (N. gonorrhoeae WHO N): 0.03 µg/mL
MIC [4]: ≤ 0.06 µg/mL
MIC [5]: 0.06 µg/mL
MIC (N. gonorrhoeae WHO K): 0.12 µg/mL
IC50 (Human Topoisomerase II; [13]): 6 µM
IC50 (Human Topoisomerase II; [14]): 6 µM
IC50 (Human Topoisomerase II; [15]): 7 µM
MIC50 [6]: 0.12 µg/mL
MIC90 [6]: 0.12 µg/mL
MIC [6]: 0.06 to 0.12 µg/mL
MIC50 [7]: 0.12 µg/mL
MIC90 [7]: 0.25 µg/mL
MIC [7]: 0.06 to 1 µg/mL
MIC (E. coli TolC- mutant): ≤ 0.016 µg/mL
MIC fold lower than that of ciprofloxacin (S. aureus ATCC 29213; S. aureus ATCC 29213): approximately 10 fold
MIC (S. aureus ATCC 29213; [16]): 0.03 µg/mL
MIC (S. aureus ATCC 29213; ATCC29213, S. aureus ATCC29213, ref strain, S4 File): ≤ 0.06 µg/mL
IC50 (E. coli DNA gyrase; IC50 E. coli Gyrase Supercoiling (average), average of two replicate experiments): 0.05 µM
IC50 (E. coli DNA gyrase; IC50 E. coli gyrase Supercoiling, Assay 1, replicate Assay 1): 0.04 µM
IC50 (E. coli DNA gyrase; IC50 E. coli gyrase Supercoiling, Assay 2, replicate Assay 2): 0.05 µM

Source: publication PMC7029851, “Antibacterial activity of novel dual bacterial DNA type II topoisomerase inhibitors” (PLoS ONE, 2020)
